Each block holds one compound with its values, some of them ahead of it. Calls of active or inactive are those of the source. The calls are words filed in the database; no cut-off is given here.
Legend:
[1] = molecular target: Glutamate receptor ionotropic, NMDA 2A (Homo sapiens, UniProt Q05586+Q12879); experiment: Antagonist activity at GluN2A NMDA receptor (unknown origin)
Homo sapiens = organism: Homo sapiens; experiment: Antagonist activity at NMDA receptor (unknown origin) relative to control; conditions: filed as antagonist, concentration not given here
[2] = Antagonist activity at NMDA receptor (unknown origin); parameters: species or system Homo sapiens
Acetylcholinesterase [3] = molecular target: T1, Acetylcholinesterase (Electrophorus electricus, UniProt O42275); experiment: Inhibition of electric eel AChE using acetylthiocholine iodide as substrate preincubated with enzyme for 10 mins followed by substrate addition and measured every 1 min for 20 mins by spectrophotometric analysis
Cholinesterase = Cholinesterase (Equus caballus, UniProt P81908); experiment: Inhibition of equine serum BuChE using butyrylthiocholine iodide as substrate preincubated with enzyme for 10 mins followed by substrate addition and measured every 1 min for 20 mins by spectrophotometric analysis
[4] = Selectivity index, ratio of IC50 for equine serum BuChE to IC50 for electric eel AChE
in vitro = conditions: PAMPA
Description: Permeability of the compound at 25 ug/ml incubated or 18 hrs by PAMPA-BBB assay

[5] = Antagonist activity at GluN1-1a/GluN2B (unknown origin) expressed in xenopus laevis oocytes assessed as inhibition of glycine/glutamate-induced channel current incubated for 20s measured at holding potential of -70 mV by two-electrode voltage clamp technique; type: cell-based, Homo sapiens; conditions: Oocyte
Acetylcholinesterase [6] = molecular target: Acetylcholinesterase (Homo sapiens, UniProt P22303); experiment: Inhibition of human AChE
[7] = molecular target: T2, Acetylcholinesterase (Rattus norvegicus) (UniProt P37136); experiment: Ex vivo inhibition of AChE activity in brain of scopalamine-induced amnesia Wistar rat model at 10 mg/kg, po administered for 7 days and on day 7 administered with scopolamine at 30 mins before drug administration; type: functional, organism-based; conditions: time 7.0 day
T2 sequence (whole entry): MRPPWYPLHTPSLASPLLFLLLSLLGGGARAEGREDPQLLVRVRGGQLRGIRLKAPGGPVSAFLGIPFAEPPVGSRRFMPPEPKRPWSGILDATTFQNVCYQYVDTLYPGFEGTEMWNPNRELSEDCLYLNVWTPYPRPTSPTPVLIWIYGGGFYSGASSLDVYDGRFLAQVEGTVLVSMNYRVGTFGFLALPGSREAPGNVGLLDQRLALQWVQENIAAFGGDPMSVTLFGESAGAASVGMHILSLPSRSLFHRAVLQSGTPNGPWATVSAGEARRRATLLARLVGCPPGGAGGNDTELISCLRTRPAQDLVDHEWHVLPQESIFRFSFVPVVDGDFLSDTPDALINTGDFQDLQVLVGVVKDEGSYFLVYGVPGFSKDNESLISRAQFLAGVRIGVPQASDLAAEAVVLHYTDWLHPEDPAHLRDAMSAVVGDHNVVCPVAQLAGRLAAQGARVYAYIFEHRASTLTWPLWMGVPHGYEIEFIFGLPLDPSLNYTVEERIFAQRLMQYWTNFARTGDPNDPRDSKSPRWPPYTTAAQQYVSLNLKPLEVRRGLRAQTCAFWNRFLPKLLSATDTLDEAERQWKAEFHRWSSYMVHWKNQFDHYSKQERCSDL

Rattus norvegicus [8] = experiment: (§1) Antialzheimer activity against scopalamine-induced amnesia Wistar rat model assessed as inhibition of cognition impairment by measuring increase in spontaneous alterations at 10 mg/kg, po administered for 7 days and on day 7 administered with scopolamine at 30 mins before drug administration by Y-maze test; type: functional, organism-based; conditions: time 7.0 day
SH-SY5Y = experiment: Neuroprotective activity against human SH-SY5Y cells assessed as reduction of Abeta(1 to 42)-induced cytotoxicity upto 10 uM pretreated with Abeta42 for 24 hrs followed by incubation with compound for 72 hrs by MTT assay; type: functional, cell-based
[9] = molecular target: T2, Acetylcholinesterase (Rattus norvegicus); experiment: Ex vivo inhibition of AChE activity in brain of scopalamine-induced amnesia Wistar rat model at 2.5 to 10 mg/kg, po administered for 7 days and on day 7 administered with scopolamine at 30 mins before drug administration; type: functional, organism-based; conditions: dose 2.5-10 mg/kg, time 7.0 day
[10] = Antagonist activity at GluN1-1a/GluN2D (unknown origin) expressed in xenopus laevis oocytes assessed as inhibition of glycine/glutamate-induced channel current incubated for 20s measured at holding potential of -70 mV by two-electrode voltage clamp technique; type: cell-based; conditions: Homo sapiens, Oocyte
[11] = Antagonist activity at GluN1-1a/GluN2A (unknown origin) expressed in xenopus laevis oocytes assessed as inhibition of glycine/glutamate-induced channel current incubated for 20s measured at holding potential of -70 mV by two-electrode voltage clamp technique; type: cell-based; conditions: Homo sapiens, Oocyte
Rattus norvegicus [12] = experiment: Antialzheimer activity against Abeta(1 to 42)-induced coginitive deficit Wistar rat model assessed as increase in total number of platform crossings at 10 mg/kg, po administered for 7 days by Morris water maze test; type: functional, organism-based; conditions: time 7.0 day
[13] = molecular target: Amyloid-beta precursor protein (Homo sapiens) (UniProt P05067); experiment: Inhibition of self-induced Amyloid beta (1 to 42 residues) (unknown origin) aggregation at Abeta(1 to 42) to compound concentration ratio of 10:5 to 10:20 uM incubated for 48 hrs by ThT fluorescence method
HEK-293T [14] = experiment: Cytotoxicity against HEK293T cells assessed as reduction in cell viability at 0.3 to 30 uM measured after 44 hrs by WST-1 assay; type: toxicity, cell-based; conditions: human, dose 0.3-30 µM
Acetylcholinesterase [15] = molecular target: T1, Acetylcholinesterase; experiment: Non-competitive inhibition of electric eel AChE by Dixon plot analysis
[16] = Antagonist activity at GluN1-1b/GluN2D (unknown origin) expressed in xenopus laevis oocytes assessed as inhibition of glycine/glutamate-induced channel current incubated for 20s measured at holding potential of -70 mV by two-electrode voltage clamp technique; type: cell-based; conditions: Homo sapiens, Oocyte
[17] = molecular target: Amyloid-beta precursor protein (Homo sapiens) (UniProt P05067); experiment: Inhibition of AChE-induced Amyloid beta (1 to 42 residues) (unknown origin) aggregation at Abeta(1 to 42) to compound concentration ratio of 10:5 to 10:20 uM incubated for 48 hrs by ThT fluorescence method
[18] = Antagonist activity at GluN1-1a/GluN2C (unknown origin) expressed in xenopus laevis oocytes assessed as inhibition of glycine/glutamate-induced channel current incubated for 20s measured at holding potential of -70 mV by two-electrode voltage clamp technique; type: cell-based; conditions: Homo sapiens, Oocyte
Rattus norvegicus [19] = experiment: Antialzheimer activity against Abeta(1 to 42)-induced coginitive deficit Wistar rat model assessed as increase in time spent in the platform zone at 10 mg/kg, po administered for 7 days by Morris water maze test; type: functional, organism-based; conditions: time 7.0 day
Rattus norvegicus [20] = experiment: as §1, with “alterations at 2.5 to 10 mg/kg,” for “alterations at 10 mg/kg,”; type: functional, organism-based; conditions: dose 2.5-10 mg/kg, time 7.0 day
HEK-293T [21] = experiment: Cytotoxicity against HEK293T cells assessed as reduction in cell viability at 100 uM measured after 44 hrs by WST-1 assay; type: toxicity, cell-based; conditions: human
[22] = Antagonist activity at GluN1-1b/GluN2C (unknown origin) expressed in xenopus laevis oocytes assessed as inhibition of glycine/glutamate-induced channel current incubated for 20s measured at holding potential of -70 mV by two-electrode voltage clamp technique; type: cell-based; conditions: Homo sapiens, Oocyte
[23] = Antagonist activity at GluN1-1b/GluN2A (unknown origin) expressed in xenopus laevis oocytes assessed as inhibition of glycine/glutamate-induced channel current incubated for 20s measured at holding potential of -70 mV by two-electrode voltage clamp technique; type: cell-based; conditions: Homo sapiens, Oocyte
[24] = Antagonist activity at GluN1-1b/GluN2B (unknown origin) expressed in xenopus laevis oocytes assessed as inhibition of glycine/glutamate-induced channel current incubated for 20s measured at holding potential of -70 mV by two-electrode voltage clamp technique; type: cell-based; conditions: Homo sapiens, Oocyte

T1 sequence (O42275 whole entry): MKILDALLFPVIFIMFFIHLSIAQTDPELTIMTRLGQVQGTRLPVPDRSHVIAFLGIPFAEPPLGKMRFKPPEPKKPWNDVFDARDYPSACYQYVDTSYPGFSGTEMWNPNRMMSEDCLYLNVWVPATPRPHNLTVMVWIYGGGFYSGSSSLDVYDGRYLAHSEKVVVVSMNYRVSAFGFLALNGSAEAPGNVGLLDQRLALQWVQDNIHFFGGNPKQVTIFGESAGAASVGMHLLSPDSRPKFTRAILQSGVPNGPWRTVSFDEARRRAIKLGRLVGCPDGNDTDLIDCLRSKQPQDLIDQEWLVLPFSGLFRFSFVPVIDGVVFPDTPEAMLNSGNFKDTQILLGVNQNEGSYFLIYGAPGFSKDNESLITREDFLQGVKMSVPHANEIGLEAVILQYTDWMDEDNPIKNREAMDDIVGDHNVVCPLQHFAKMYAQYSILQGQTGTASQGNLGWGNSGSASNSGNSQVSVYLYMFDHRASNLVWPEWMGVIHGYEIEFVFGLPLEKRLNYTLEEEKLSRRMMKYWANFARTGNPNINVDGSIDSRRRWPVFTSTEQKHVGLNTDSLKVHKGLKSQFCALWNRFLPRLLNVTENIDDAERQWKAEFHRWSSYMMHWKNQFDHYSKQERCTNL
Cholinesterase, sequence (P81908 whole entry): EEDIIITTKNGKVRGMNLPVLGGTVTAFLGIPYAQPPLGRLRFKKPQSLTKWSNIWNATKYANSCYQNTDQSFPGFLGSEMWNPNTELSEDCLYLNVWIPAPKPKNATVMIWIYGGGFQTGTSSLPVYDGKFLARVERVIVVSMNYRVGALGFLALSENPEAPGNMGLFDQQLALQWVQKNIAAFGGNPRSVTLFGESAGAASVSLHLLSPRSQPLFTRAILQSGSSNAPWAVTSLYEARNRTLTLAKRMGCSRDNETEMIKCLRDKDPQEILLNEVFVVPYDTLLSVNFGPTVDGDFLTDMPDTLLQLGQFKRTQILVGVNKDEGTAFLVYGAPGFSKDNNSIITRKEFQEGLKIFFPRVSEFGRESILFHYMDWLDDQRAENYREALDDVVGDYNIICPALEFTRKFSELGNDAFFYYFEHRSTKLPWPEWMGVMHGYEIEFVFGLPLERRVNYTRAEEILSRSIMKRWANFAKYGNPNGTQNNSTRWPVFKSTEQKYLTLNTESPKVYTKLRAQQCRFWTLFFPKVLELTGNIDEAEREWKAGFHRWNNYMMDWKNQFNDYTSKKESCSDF
Amyloid-beta precursor protein (Homo sapiens), sequence (P05067 whole entry, the tested form may be a part): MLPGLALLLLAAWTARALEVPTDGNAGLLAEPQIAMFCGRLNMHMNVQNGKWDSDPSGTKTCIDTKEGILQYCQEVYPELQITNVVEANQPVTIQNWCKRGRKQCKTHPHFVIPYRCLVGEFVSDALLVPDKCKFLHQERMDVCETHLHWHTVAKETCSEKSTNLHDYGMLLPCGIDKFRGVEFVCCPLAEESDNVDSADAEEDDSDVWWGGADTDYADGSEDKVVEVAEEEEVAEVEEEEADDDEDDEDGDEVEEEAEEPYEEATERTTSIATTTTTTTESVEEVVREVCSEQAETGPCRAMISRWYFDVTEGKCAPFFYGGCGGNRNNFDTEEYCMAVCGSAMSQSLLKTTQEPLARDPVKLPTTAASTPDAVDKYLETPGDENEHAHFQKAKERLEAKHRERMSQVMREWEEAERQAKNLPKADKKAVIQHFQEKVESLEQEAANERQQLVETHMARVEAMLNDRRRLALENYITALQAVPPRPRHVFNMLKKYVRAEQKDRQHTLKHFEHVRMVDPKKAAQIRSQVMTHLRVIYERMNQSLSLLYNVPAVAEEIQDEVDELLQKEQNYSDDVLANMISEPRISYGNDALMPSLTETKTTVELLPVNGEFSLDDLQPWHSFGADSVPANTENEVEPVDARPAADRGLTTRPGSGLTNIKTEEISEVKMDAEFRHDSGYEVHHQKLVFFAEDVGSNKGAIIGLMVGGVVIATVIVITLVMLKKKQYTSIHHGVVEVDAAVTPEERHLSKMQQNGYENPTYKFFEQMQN
Acetylcholinesterase (Homo sapiens, UniProt P22303), sequence (P22303 whole entry): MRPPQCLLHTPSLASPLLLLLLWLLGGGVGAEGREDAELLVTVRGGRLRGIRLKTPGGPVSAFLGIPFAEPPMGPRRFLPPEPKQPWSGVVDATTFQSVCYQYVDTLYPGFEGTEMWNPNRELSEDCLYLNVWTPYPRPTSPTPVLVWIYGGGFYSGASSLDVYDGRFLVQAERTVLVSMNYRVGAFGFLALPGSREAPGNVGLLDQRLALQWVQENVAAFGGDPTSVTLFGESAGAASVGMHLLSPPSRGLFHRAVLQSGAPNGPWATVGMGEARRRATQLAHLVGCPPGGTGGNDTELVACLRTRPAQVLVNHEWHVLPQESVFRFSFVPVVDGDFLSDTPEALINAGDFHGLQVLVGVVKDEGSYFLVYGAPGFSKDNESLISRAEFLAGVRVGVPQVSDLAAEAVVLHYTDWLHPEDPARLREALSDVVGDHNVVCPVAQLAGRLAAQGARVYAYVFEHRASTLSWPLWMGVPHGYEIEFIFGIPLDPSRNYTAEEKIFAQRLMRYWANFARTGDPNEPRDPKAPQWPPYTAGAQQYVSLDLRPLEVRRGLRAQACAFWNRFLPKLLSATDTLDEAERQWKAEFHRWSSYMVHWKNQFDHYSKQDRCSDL
Glutamate receptor ionotropic, NMDA 2A, sequence (Q12879 whole entry, one chain of several): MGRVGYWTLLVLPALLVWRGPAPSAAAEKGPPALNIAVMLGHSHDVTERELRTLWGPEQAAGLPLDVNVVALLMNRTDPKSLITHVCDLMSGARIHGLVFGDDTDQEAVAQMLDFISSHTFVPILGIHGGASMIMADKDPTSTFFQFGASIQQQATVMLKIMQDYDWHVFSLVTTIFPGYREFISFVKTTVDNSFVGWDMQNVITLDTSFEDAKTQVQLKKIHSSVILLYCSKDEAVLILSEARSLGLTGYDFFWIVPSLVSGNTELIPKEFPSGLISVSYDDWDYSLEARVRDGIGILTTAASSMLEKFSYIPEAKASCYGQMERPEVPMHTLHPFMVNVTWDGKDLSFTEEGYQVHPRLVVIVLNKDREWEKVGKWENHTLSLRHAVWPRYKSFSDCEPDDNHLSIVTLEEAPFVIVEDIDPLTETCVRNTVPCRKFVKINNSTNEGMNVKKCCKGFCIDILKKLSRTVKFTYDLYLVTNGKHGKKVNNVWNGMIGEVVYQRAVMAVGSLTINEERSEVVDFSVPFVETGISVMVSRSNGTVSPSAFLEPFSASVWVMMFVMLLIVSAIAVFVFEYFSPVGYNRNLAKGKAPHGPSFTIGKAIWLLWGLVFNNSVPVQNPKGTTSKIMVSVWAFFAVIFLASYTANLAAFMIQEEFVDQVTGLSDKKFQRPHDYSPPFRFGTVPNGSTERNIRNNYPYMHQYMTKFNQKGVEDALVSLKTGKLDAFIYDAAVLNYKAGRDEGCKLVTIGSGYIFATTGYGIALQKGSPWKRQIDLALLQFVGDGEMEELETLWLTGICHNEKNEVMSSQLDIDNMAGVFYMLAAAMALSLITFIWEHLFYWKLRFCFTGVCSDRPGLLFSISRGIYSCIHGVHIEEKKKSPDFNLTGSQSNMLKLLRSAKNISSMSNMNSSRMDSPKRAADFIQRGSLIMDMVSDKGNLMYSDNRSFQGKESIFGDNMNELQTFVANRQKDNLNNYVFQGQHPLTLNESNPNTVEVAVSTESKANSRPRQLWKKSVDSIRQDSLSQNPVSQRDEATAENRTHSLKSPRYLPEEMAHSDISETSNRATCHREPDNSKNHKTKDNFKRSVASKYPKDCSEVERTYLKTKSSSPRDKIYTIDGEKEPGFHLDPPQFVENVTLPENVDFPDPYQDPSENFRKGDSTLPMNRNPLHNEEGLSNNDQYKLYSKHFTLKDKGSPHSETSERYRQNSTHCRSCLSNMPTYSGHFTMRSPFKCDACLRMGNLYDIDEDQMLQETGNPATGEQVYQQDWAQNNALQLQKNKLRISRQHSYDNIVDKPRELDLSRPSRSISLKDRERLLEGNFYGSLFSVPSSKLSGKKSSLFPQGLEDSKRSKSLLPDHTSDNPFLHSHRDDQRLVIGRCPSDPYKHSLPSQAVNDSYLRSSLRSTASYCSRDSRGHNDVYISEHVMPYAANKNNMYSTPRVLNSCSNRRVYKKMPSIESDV

- IC50 [1]: 146 µM
Structure (SMILES): CC(C(O)c1ccc(O)cc1)N1CCC(Cc2ccccc2)CC1 (stereo not given) [IFENPRODIL]

Structure (SMILES): c1ccc(CCNC23CC4CC(CC(C4)C2)C3)cc1
- inhibition (Homo sapiens): 89.5%

- IC50 [2]: 0.9 µM
Structure (SMILES): F[C@]12CC3C[C@](NCCCCCNc4c5c(nc6cc(Cl)ccc46)CCCC5)(C[C@H](C1)c1ccccc13)C2

Structure (SMILES): c1ccc(Cn2cc(CNC34CC5CC(CC(C5)C3)C4)nn2)cc1
- IC50 (Acetylcholinesterase [3]): 0.36 µM
- IC50 (Cholinesterase): 4.72 µM
- Ratio IC50 [4]: 13.1
- Papp at 18 h, 25 ug/ml (in vitro): 6.95 ×10⁻⁶ cm/s

Structure (SMILES): CC(C)c1ccc(Cn2cc(CNC34CC5CC(CC(C5)C3)C4)nn2)cc1
- IC50 (Acetylcholinesterase [3]): 0.799 µM
- IC50 [5]: 79.5 µM
- IC50 (Cholinesterase): 7.83 µM
- Ratio IC50 [4]: 9.79
- Papp at 18 h, 25 ug/ml (in vitro): 7.63 ×10⁻⁶ cm/s

Structure (SMILES): Cc1ccc(Cn2cc(CNC3CCCCCC3)nn2)cc1
- IC50 (Acetylcholinesterase [3]): 1.22 µM
- IC50 [5]: 63.6 µM
- IC50 (Cholinesterase): 19.3 µM
- Ratio IC50 [4]: 15.8
- Papp at 18 h, 25 ug/ml (in vitro): 7.35 ×10⁻⁶ cm/s

Structure (SMILES): Clc1ccc(Cn2cc(CNC3CCCCCC3)nn2)cc1
- IC50 (Acetylcholinesterase [3]): 0.607 µM
- IC50 (Acetylcholinesterase [6]): 0.927 µM
- IC50 (Cholinesterase): 16.5 µM
- Ratio IC50 [4]: 27.1
- Papp at 18 h, 25 ug/ml (in vitro): 6.84 ×10⁻⁶ cm/s

Structure (SMILES): Fc1ccc(Cn2cc(CNC34CC5CC(CC(C5)C3)C4)nn2)cc1
- IC50 (Acetylcholinesterase [3]): 0.194 µM
- IC50 (Cholinesterase): 3.27 µM
- Ratio IC50 [4]: 16.9
- Papp at 18 h, 25 ug/ml (in vitro): 7.75 ×10⁻⁶ cm/s

Structure (SMILES): Brc1ccc(Cn2cc(CNC34CC5CC(CC(C5)C3)C4)nn2)cc1
- inhibition [7]: Active
- Activity (Rattus norvegicus [8]): Active
- IC50 (Acetylcholinesterase [3]): 0.086 µM
- Activity (SH-SY5Y): Active
- inhibition [9]: Dose-Dependent Effect
- IC50 [10]: 112 µM
- IC50 [11]: 47.4 µM
- Activity (Rattus norvegicus [12]): Active
- inhibition [13]: Dose-Dependent Effect
- Activity (HEK-293T [14]): Non-Toxic
- Ki (Acetylcholinesterase [15]): 0.026 µM
- IC50 [16]: 99.5 µM
- inhibition [17]: Dose-Dependent Effect
- IC50 [18]: 90.2 µM
- Activity (Rattus norvegicus [19]): Active
- IC50 [5]: 3.88 µM
- IC50 (Acetylcholinesterase [6]): 0.092 µM
- IC50 (Cholinesterase): 2.55 µM
- Activity (Rattus norvegicus [20]): Dose-Dependent Effect
- Ratio IC50 [4]: 29.6
- Activity (HEK-293T [21]): Toxic
- IC50 [22]: 45.1 µM
- IC50 [23]: 36.5 µM
- Papp at 18 h, 25 ug/ml (in vitro): 8.75 ×10⁻⁶ cm/s
- IC50 [24]: 3 µM

Structure (SMILES): c1ccc(Cn2cc(CNC3CCCCCC3)nn2)cc1
- IC50 (Acetylcholinesterase [3]): 1.41 µM
- IC50 (Cholinesterase): 11.4 µM
- Ratio IC50 [4]: 8.02
- Papp at 18 h, 25 ug/ml (in vitro): 7.2 ×10⁻⁶ cm/s

Structure (SMILES): CC(C)c1ccc(Cn2cc(CNC3CCCCCC3)nn2)cc1
- IC50 (Acetylcholinesterase [3]): 1.52 µM
- IC50 [5]: 217 µM
- IC50 (Cholinesterase): 15.7 µM
- Ratio IC50 [4]: 10.3
- Papp at 18 h, 25 ug/ml (in vitro): 7.24 ×10⁻⁶ cm/s

Source: ChEMBL document CHEMBL5625199, “Discovery of triazole-bridged aryl adamantane analogs as an intriguing class of multifunctional agents for treatment of Alzheimer's disease” (Eur J Med Chem, 2023)
